Assay results as given in patent EP4748840A1, “IMIDAZO[1,2-A]PYRIDINE TYPE IRAK DEGRADATION AGENT AND USE THEREOF” (TAINUORUI (TIANJIN) BIOTECHNOLOGY CO., LTD, priority 2023, dated 2025).

Tests used:
IRAK4 = molecular target: T1, IRAK4 (Homo sapiens, UniProt Q9NWZ3); experiment: HiBiT-based intracellular degradation assay of THP1-HIBiT-IRAK4 cells; assay type: cell-based; details: half-maximal degradation concentration of IRAK4 protein, 24 h incubation
T1 construct: expressed in transfected cells; host or cells: THP1 (THP1-HIBiT-IRAK4 engineered line)
T1 sequence (Q9NWZ3 1-460): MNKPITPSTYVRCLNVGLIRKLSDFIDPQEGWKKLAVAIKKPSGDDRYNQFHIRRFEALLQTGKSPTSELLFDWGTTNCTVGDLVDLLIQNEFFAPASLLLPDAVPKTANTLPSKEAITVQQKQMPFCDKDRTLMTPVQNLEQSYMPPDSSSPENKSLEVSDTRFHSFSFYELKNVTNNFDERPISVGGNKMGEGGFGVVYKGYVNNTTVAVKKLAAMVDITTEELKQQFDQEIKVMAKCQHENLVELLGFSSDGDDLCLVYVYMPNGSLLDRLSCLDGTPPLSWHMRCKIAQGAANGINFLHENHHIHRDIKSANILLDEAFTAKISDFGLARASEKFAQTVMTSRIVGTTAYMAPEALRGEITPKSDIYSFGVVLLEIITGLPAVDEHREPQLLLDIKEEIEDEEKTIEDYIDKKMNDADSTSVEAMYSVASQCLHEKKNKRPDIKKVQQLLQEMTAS
Method: HiBiT-based intracellular degradation assay of THP1-HIBiT-IRAK4 cells
THP1-HIBiT-IRAK4 cells were cultured in RPMI 1640 medium supplemented with 10% fetal bovine serum (FBS) and 1% penicillin-streptomycin (PS) (37°C and 5% CO2). The THP1-HIBiT-IRAK4 cells were inoculated in a 384-well plate at 5000 cells/40 µL/well. Compound solutions with different concentrations were added at 40 nL/well and incubated for 24 h at 37°C in 5% CO2. HiBiT lysis detection reagents were added to the wells, the plate was incubated for 30 min at room temperature, and luminescence values were read on Envision. [formula]
The DC50 (half-maximal degradation concentration) of each compound was obtained using XLfit software and the following nonlinear fitting equation: Y = bottom + (top−bottom)/(1+10^(∧)((LogDC50−X)×Hillslope)). [formula]
X denotes a log value of the compound concentration.
Y denotes the degradation rate.
Table 1 lists the results of DC50 values of IRAK4 protein degradation. […]

[1] = In vivo pharmacokinetic study in mice; details: male CD1 mice
Method: In vivo pharmacokinetic study
The pharmacokinetic behaviors of Example 1 and Example 15 in mice were studied using the following experimental protocol to evaluate their pharmacokinetic characteristics.
The mice had free access to food and water before the test.
(§1) Approximately 0.03 mL of venous blood was collected from the dorsal metatarsal vein of each mouse separately after 0.033 h, 0.083 h, 0.25 h, 0.5 h, 1 h, 2 h, 4 h, 8 h, and 24 h since intravenous injection. The blood was placed in an EDTA-K2 tube and centrifuged for 5 min at 4000 g and 4°C. The plasma was separated. The concentration of the compound in the plasma was determined through liquid chromatography-tandem mass spectrometry.
as §1, with “after” for “after 0.033 h,”, “oral administration.” for “intravenous injection.”

[2] = mouse, plasma, Intravenous Injection (2 mg/kg)

Compound `CC(C)(O)c1cc2nc(C3CCN(CC4CCN(c5ccc6c(c5)C(=O)N(C5CCC(=O)NC5=O)C6=O)CC4)CC3)cn2cc1NC(=O)c1cccc(C(F)(F)F)n1` (stereo not shown) [Example 1] has a DC50 (IRAK4) of 4.53 nM, an F ([1]; oral bioavailability, Oral Administration (20 mg/kg) vs Intravenous Injection (2 mg/kg)) of 12.1% and a clearance [1, 2] of 59.5 mL/min/kg. It also gave a half-life [1, 2] of 7.88 h, a half-life ([1]; mouse, plasma, Oral Administration (20 mg/kg)) of 6.81 h and an AUC(0-t) ([1]; mouse, Intravenous Injection (2 mg/kg), plasma) of 550 ng·h/mL. It also gave an AUC(0-t) ([1]; mouse, Oral Administration (20 mg/kg), plasma) of 626 ng·h/mL.
Compound `CC(C)(O)c1cc2nc(C3CCN(C4CN(C5CCN(c6ccc7c(c6)C(=O)N(C6CCC(=O)NC6=O)C7=O)CC5)C4)CC3)cn2cc1NC(=O)c1cccc(C(F)(F)F)n1` (stereo not shown) [Example 20, N-(2-(1-(1-(1-(2-(2,6-dioxopiperidin-3-yl)-1,3-dioxoisoindolin-5-yl)piperidin-4-yl)azetidin-3-yl)piperidin-4-yl)-7-(2-hydroxypropan-2-yl)imidazo[1,2-a]pyridin-6-yl)-6-(trifluoromethyl)pyridine-2-carboxamide] has a DC50 (IRAK4) of 1.35 nM.
For `COc1cc2nc(C3CCN(CCN4CCN(c5ccc6c(c5)C(=O)N(C5CCC(=O)NC5=O)C6)CC4)CC3)cn2cc1NC(=O)c1cccc(C(F)(F)F)n1` (stereo not shown) [Example 14, N-(2-(1-(2-(4-(2-(2,6-dioxopiperidin-3-yl)-3-oxoisoindolin-5-yl)piperazin-1-yl)ethyl)piperidin-4-yl)-7-methoxyimidazo[1,2-a]pyridin-6-yl)-6-(trifluoromethyl)pyridine-2-carboxamide], the DC50 (IRAK4) was 1.33 nM.
Compound `CC(C)(O)c1cc2nc(C3CCN(CCOCCNc4cccc5c4C(=O)N(C4CCC(=O)NC4=O)C5=O)CC3)cn2cc1NC(=O)c1cccc(C(F)(F)F)n1` (stereo not shown) [Comparative Example 1, N-(2-(1-(2-(2-((2-(2,6-dioxopiperidin-3-yl)-1,3-dioxoisoindolin-4-yl)amino)ethoxy)ethyl)piperidin-4-yl)-7-(2-hydroxypropan-2-yl)imidazo[1,2-a]pyridin-6-yl)-6-(trifluoromethyl)pyridine-2-carboxamide, reference compound] has a DC50 (IRAK4) greater than 10000 nM.
With `CC(C)(O)c1cc2nc(C3CCN(CCN4CCN(c5ccc6c(c5)CN(C5CCC(=O)NC5=O)C6=O)CC4)CC3)cn2cc1NC(=O)c1cccc(C(F)(F)F)n1` (stereo not shown) [Example 10, N-(2-(1-(2-(4-(2-(2,6-dioxopiperidin-3-yl)-1-oxoisoindolin-5-yl)piperazin-1-yl)ethyl)piperidin-4-yl)-7-(2-hydroxypropan-2-yl)imidazo[1,2-a]pyridin-6-yl)-6-(trifluoromethyl)pyridine-2-carboxamide] the DC50 (IRAK4) was 0.51 nM.
With `CC(C)(O)c1cc2nc(C3CCN(CCN4CCN(c5ccc6c(c5)C(=O)N(C5CCC(=O)NC5=O)C6)CC4)CC3)cn2cc1NC(=O)c1cccc(C(F)(F)F)n1` (stereo not shown) [Example 13, N-(2-(1-(2-(4-(2-(2,6-dioxopiperidin-3-yl)-3-oxoisoindolin-5-yl)piperazin-1-yl)ethyl)piperidin-4-yl)-7-(2-hydroxypropan-2-yl)imidazo[1,2-a]pyridin-6-yl)-6-(trifluoromethyl)pyridine-2-carboxamide] the DC50 (IRAK4) was 0.64 nM.
`CC(C)(O)c1cc2nc(C3CCN(CCN4CCN(c5cc6c(cc5F)C(=O)N(C5CCC(=O)NC5=O)C6=O)CC4)CC3)cn2cc1NC(=O)c1cccc(C(F)(F)F)n1` (stereo not shown) [Example 22, N-(2-(1-(2-(4-(2-(2,6-dioxopiperidin-3-yl)-6-fluoro-1,3-dioxoisoindolin-5-yl)piperazin-1-yl)ethyl)piperidin-4-yl)-7-(2-hydroxypropan-2-yl)imidazo[1,2-a]pyridin-6-yl)-6-(trifluoromethyl)pyridine-2-carboxamide] showed a DC50 (IRAK4) of 4.76 nM.
For `CC(C)(O)c1cc2nc(C3CCN(CC4CCN(c5cc6c(cc5F)C(=O)N([C@@H]5CCC(=O)NC5=O)C6=O)CC4)CC3)cn2cc1NC(=O)c1cccc(C(F)(F)F)n1` [Example 25, (R)-N-(2-(1-((1-(2-(2,6-dioxopiperidin-3-yl)-6-fluoro-1,3-dioxoisoindolin-5-yl)piperidin-4-yl)methyl)piperidin-4-yl)-7-(2-hydroxypropan-2-yl)imidazo[1,2-a]pyridin-6-yl)-6-(trifluoromethyl)pyridine-2-carboxamide], the DC50 (IRAK4) was 12.8 nM.
Compound `CC(C)(O)c1cc2nc(C3CCN(CC4CCN(c5ccc6c(c5)CN(C5CCC(=O)NC5=O)C6=O)CC4)CC3)cn2cc1NC(=O)c1cccc(C(F)(F)F)n1` (stereo not shown) [Example 7, N-(2-(1-((1-(2-(2,6-dioxopiperidin-3-yl)-1-oxoisoindolin-5-yl)piperidin-4-yl)methyl)piperidin-4-yl)-7-(2-hydroxypropan-2-yl)imidazo[1,2-a]pyridin-6-yl)-6-(trifluoromethyl)pyridine-2-carboxamide] has a DC50 (IRAK4) of 1.36 nM.
Compound `CC(C)(O)c1cc2nc(C3CCN(CC4CCN(c5cc6c(cc5F)C(=O)N(C5CCC(=O)NC5=O)C6)CC4)CC3)cn2cc1NC(=O)c1cccc(C(F)(F)F)n1` (stereo not shown) [Example 23, N-(2-(1-((1-(2-(2,6-dioxopiperidin-3-yl)-6-fluoro-1-oxoisoindolin-5-yl)piperidin-4-yl)methyl)piperidin-4-yl)-7-(2-hydroxypropan-2-yl)imidazo[1,2-a]pyridin-6-yl)-6-(trifluoromethyl) pyridine-2-carboxamide] has a DC50 (IRAK4) of 0.95 nM.
